Results on 21 compounds are retold here after publication PMC11279401, “Inhibitory Effect of Selected Guaianolide and Germacranolide Sesquiterpene Lactones on Nitric Oxide Production” (Molecules, 2024).

Entries after “also recorded” stand apart in the source; their conditions may differ. Where two headings read alike, the source gives them in different places. A value given as a limit tells only on which side of the number the result lay.

Data set [1] can be described thus: Cytotoxicity assay (WST-1), viability of mouse peritoneal cells. It counts as cell-based. Particulars: 10 µM compound, mouse peritoneal cells 1.0 × 10^6/mL, 24 h, read-out: Cell viability (O.D.) relative to untreated controls; for viability at 24 h, 10 µM: primary mouse peritoneal cells (macrophages). On the procedure:
(§1) The tested compounds were dissolved in dimethyl sulfoxide (DMSO) to make stock solutions at a concentration of 50 mM, and then stored at −20 °C. Their biological activities were screened using a final concentration of 10 µM.
(§2) The animals were killed by cervical dislocation and injected intraperitoneally with 8 mL of sterile saline. Pooled peritoneal cells collected from the mice (n = 4–6 in individual experiments) were washed and re-suspended in a culture medium. The cell suspension was seeded onto 96-well round-bottom microplates (Costar, Corning, NY, USA). Final samples were supplemented to 100 µL volumes, containing 1–2 × 10^6 cells per well, depending on the assay. Cultures were maintained at 37 °C, 5% CO2 in a humidified incubator (Heraeus Holding GmbH, Hanau, Germany).
(§3) The viability of mouse peritoneal cells was determined using a colorimetric assay based on the cleavage of tetrazolium salt WST-1 by mitochondrial dehydrogenases in viable cells (Roche Diagnostics, Mannheim, Germany). The cells (1 × 10^6/mL) were cultured as described above. The viability of primary murine macrophages was tested in the presence of 10 µM of the respective test substance for […]. After the first 24 h of cultivation, WST-1 was added (10 µL), and the cells were kept in a Heraeus incubator at 37 °C for an additional 3 h. Triton X-100 (1%) was used as a common reference in the cytotoxicity assay. Optical density was evaluated at wavelengths of 450–690 nm.
In general terms: Formazan colour is commonly taken as a measure of viable cells.

Another data set deals with mouse peritoneal cells. Described as above. The class given is cell-based. Particulars: 10 µM compound, primary murine macrophages. The method, then:
as §1, §2, §3

Data set [2] concerns polymorphonuclear lymphocytes. More on the design: method as in PMID 30653318. The conditions noted are these: cited from earlier work.
Data set [3] deals with NO production by mouse peritoneal cells. In words: Nitric oxide assay (Griess), LPS + IFN-γ-activated mouse peritoneal cells. It counts as cell-based. Particulars: 24 h; for IC50: (LPS + IFN-γ)-activated mouse peritoneal cells, concentrations 0.01–50.0 μM tested, read-out: Inhibition of nitric oxide production, IC50; for Effect on IFN-γ + LPS-activated NO production (in words): 10 µM screening, mouse peritoneal cells. The method, then: The tested compounds were dissolved in dimethyl sulfoxide (DMSO) to make stock solutions at a concentration of 50 mM, and then stored at −20 °C. Their biological activities were screened using a final concentration of 10 µM. […] This concentration of DMSO was devoid of any effects in biological assays.
as §2, with “Germany). The complete RPMI-1640 culture medium (Sigma-Aldrich, St. Louis, MO, USA) contained 10% heat-inactivated fetal bovine serum, 2 mM L-glutamine, 50 µg/mL gentamicin, and 5 × 10^−5 M 2-mercaptoethanol (all Sigma-Aldrich).” for “Germany).”
High-output NO production was induced by a mixture of lipopolysaccharide (LPS from E. coli 0111:B4, 0.1 ng/mL; Sigma) and murine recombinant interferon-γ (IFN-γ, 5 ng/mL; R&D Systems, Minneapolis, MN, USA) in mouse peritoneal cells (2 × 10^6/mL). The tested compounds were applied concomitantly with both priming stimuli, and peritoneal macrophages were cultured for 24 h. The concentration of nitrites in the supernatants of the cell cultures was taken as a measure of NO production. It was detected in individual cell-free samples (50 µL) incubated for 5 min at ambient temperature with an aliquot of Griess reagent (1% sulfanilamide/0.1% naphtylendiamine/2.5% H3PO4). Absorbance at 540 nm was recorded using a microplate spectrophotometer (Tecan, Grödig, Austria). A nitrite calibration curve was used to convert absorbance values to µM of nitrite.

The subject of the next data set is RAW264.7 macrophages. The conditions noted are these: cited from earlier work.
The subject of data set [4] is production of PGE2 by murine peritoneal cells. In words: Prostaglandin E2 assay (ELISA), LPS-stimulated murine peritoneal cells. It counts as cell-based, mouse. The conditions noted are these: 10 ng/mL LPS, 6 h, murine peritoneal cells 2.0 × 10^6/mL. On the procedure: as §2, with “Germany). The complete RPMI-1640 culture medium (Sigma-Aldrich, St. Louis, MO, USA) contained 10% heat-inactivated fetal bovine serum, 2 mM L-glutamine, 50 µg/mL gentamicin, and 5 × 10^−5 M 2-mercaptoethanol (all Sigma-Aldrich).” for “Germany).”
(§4) The concentration of PGE2 was determined in the supernatants of cells cultured (2 × 10^6/mL) after the addition of 10 ng/mL LPS for an interval of 6 h. The levels of cytokines TNF-α, IL-1β, IL-6, and IL-10, and the chemokine RANTES were determined in the supernatants of cells cultured (2 × 10^6/mL) in the presence of 1 µg/mL LPS for an interval 21 h. The extent of PGE2 release and cytokine secretion was determined using enzyme-linked immune-absorbent assay (ELISA) kits according to the manufacturer’s instructions (R&D Systems, Minneapolis, MN, USA).
In general terms: In an ELISA, binding on a coated surface is turned into a signal by an enzyme label.

Data set [5] relates to secretion of cytokines TNF-α, IL-1β, IL-6, IL-10 and chemokine RANTES by murine peritoneal cells. In words: Cytokine assays (ELISA), LPS-stimulated murine peritoneal cells. The class given is cell-based, mouse. The conditions noted are these: 1 µg/mL LPS, 21 h, IL-6, IL-10, RANTES. The method, then:
as §2, with “Germany). The complete RPMI-1640 culture medium (Sigma-Aldrich, St. Louis, MO, USA) contained 10% heat-inactivated fetal bovine serum, 2 mM L-glutamine, 50 µg/mL gentamicin, and 5 × 10^−5 M 2-mercaptoethanol (all Sigma-Aldrich).” for “Germany).”
as §4

Turning to `C=C1C(=O)O[C@@H]2/C=C(\C)CC/C=C(\C)C[C@@H](OC(=O)/C(=C/CO)CO)[C@@H]12` [Compound 18, eupatoriopicrin], in data set [1], the viability at 10 µM was roughly 10%. Besides, in the data set on mouse peritoneal cells, the “Cytotoxicity / effect on cell viability (in words)” value (“Cytotoxicity / effect” for short) is recorded as “highly toxic; also recorded: remarkable cytotoxicity”. Also, the “Concentration up to which not toxic” value in data set [2] is no more than 2500 nM. Also, the IC50 in data set [3] was 1.65 µM.

On to `CC1=C2C(=O)C=C(CO)[C@@H]2[C@H]2OC(=O)[C@@H](C)[C@@H]2[C@@H](O)C1` [Compound 4, 11β,13-dihydrolactucin], for which the IC50 in data set [3] was greater than 100 µM.

Take `CC1=CC(=O)C2=C(C)CC(OC3OC(CO)C(O)C(O)C3O)C3C(OC(=O)C3(C)O)C12` (stereo not drawn) [Compound 10, 11β-hydroxydeacetylmatricarin glucoside]: the IC50 in data set [3] was greater than 100 µM.

With `C=C1CC(O)C2C(C)C(=O)OC2C2C1CC(OC1OC(CO)C(O)C(O)C1O)C2C` (stereo not shown) [Compound 5, 4,8-diepiisolippidiol glucoside], in data set [3], the IC50 was greater than 100 µM.

`C=C1C(=O)OC2C1CC(O)C(C)=CCCC1(C)OC21` (stereo not shown) [Compound 20, 9-hydroxyparthenolide]: the viability at 10 µM in data set [1] is 77 ± 5.09%. In data set [3], the “Effect on IFN-γ + LPS-activated NO production (in words)” value was “substantially decreased the production of NO” and the IC50 turned out to be 5.64 µM.

Consider `C=C1C[C@@H](O)[C@@H]2[C@H](OC(=O)[C@H]2C)[C@H]2[C@H](C)C(=O)C[C@@H]12` [Compound 1, 8-epiisoamberboin], for which the “Cytotoxicity / effect” value in the data set with mouse peritoneal cells was “without any suppression of cell viability”. Also, the “NO production relative to controls stimulated with IFN-γ + LPS” value in data set [3] (10 µM compound, mouse peritoneal cells 2.0 × 10^6/mL) was “about 25%”. Further, in data set [3], the “Effect on IFN-γ + LPS-activated NO production (in words)” value is listed as “significant NO-inhibitory effect” and the IC50 worked out at 23.8 µM.

Consider `C=C1C[C@@H](O)[C@@H]2[C@H](OC(=O)[C@H]2C)[C@H]2[C@H](C)[C@@H](O)C[C@@H]12` [Compound 2, 8-epiisolippidiol], for which, in data set [3], the IC50 was greater than 100 µM.

On to `C=C1C(O)CC2C(C)C(=O)OC2C2C(=C)C(OC3OC(CO)C(O)C(O)C3O)CC12` (stereo not shown) [Compound 8, ixerin F], for which the IC50 in data set [3] was greater than 100 µM.

For the compound `C=C1C(=O)O[C@@H]2C[C@@H](C)[C@@H]3C=CC(=O)[C@@]3(C)[C@@H](O)[C@H]12` [Compound 15, helenalin], the IC50 in data set [3] stood at 0.74 µM.

Turning to `CC1=C2C(=O)C=C(COC3OC(CO)C(O)C(O)C3O)C2C2OC(=O)C(C)C2CC1` (stereo not shown) [Compound 7, crepidiaside B], in data set [3], the IC50 is greater than 100 µM.

Regarding `C=C1C(=O)O[C@@H]2/C=C(\C)CC/C=C(\C)CC[C@@H]12` [Compound 16, costunolide], the viability at 24 h, 10 µM in data set [1] was roughly 50%. Moreover, the “Cytotoxicity / effect” value in the data set with mouse peritoneal cells was “moderate toxicity; also recorded: remarkable cytotoxicity”. Moreover, in data set [3], the IC50 stood at 3.2 µM.

Regarding `C=C1CC(O)C2C(=C)C(=O)OC2C2C1CC(OC1OC(CO)C(O)C(O)C1O)C2C` (stereo not shown) [Compound 11, 11,13-dehydro-8-epiisolippidiol glucoside], the IC50 in data set [3] is greater than 100 µM.

In the case of `CC1=CC(=O)C2=C(C)CCC3C(OC(=O)C3(C)OC3OC(CO)C(O)C(O)C3O)C12` (stereo not drawn) [Compound 9, 11β-hydroxyleukodin glucoside], the IC50 in data set [3] was greater than 100 µM.

As for `C=C1C(=O)OC2C1CCC(C)(O)C1CC(OC3OC(CO)C(O)C(O)C3O)C(=C)C21` (stereo not shown) [Compound 12, ixerin D], the IC50 in data set [3] was greater than 100 µM.

Take `C=C1C(=O)O[C@@H]2[C@H]3C(CO)=CC(=O)C3=C(C)CC[C@@H]12` [Compound 13, 8-deoxylactucin]: the IC50 was 13 µM in the data set on RAW264.7 macrophages (RAW264.7 macrophages, read-out: Inhibition of nitric oxide production, IC50) and 2.81 µM in data set [3]. The “Cytotoxicity / effect” value in the data set on mouse peritoneal cells was “without any suppression of cell viability”. Moreover, the “Effect on immune-activated production of PGE2 (in words)” value in data set [4] is “did not interfere”. The “Effect on secretion of cytokines (in words)” value in data set [5] is recorded as “did not interfere”. Besides, the “Effect on IFN-γ + LPS-activated NO production (in words)” value in data set [3] is recorded as “significant NO-inhibitory effect”.

With `C=C(CO)C(=O)O[C@H]1CC(=C)[C@@H]2C[C@H](O)C(=C)[C@@H]2[C@H]2OC(=O)C(=C)[C@@H]21` [Compound 14, cynaropicrin], in data set [1], the viability at 24 h, 10 µM was roughly 50%. Also, the “Cytotoxicity / effect” value with mouse peritoneal cells is listed as “cytotoxic; also recorded: remarkable cytotoxicity”. In data set [3], the IC50 was found to be 9.87 µM.

Take eupatolide [Compound 17]: the IC50 in the data set on RAW264.7 macrophages (murine macrophage line RAW264.7, read-out: Inhibitory potency against NO production, concentration range) is 1.54 to 6.43 µM. Moreover, in data set [3], the “Effect on IFN-γ + LPS-activated NO production (in words)” value was “significant NO-inhibitory effect” and the IC50 is 4.38 µM.

Take `CC1=CC(=O)C2=C(C)C[C@H](O)[C@@H]3[C@H](OC(=O)[C@H]3C)[C@@H]12` [Compound 3, deacetylmatricarin]: the IC50 in data set [3] is greater than 100 µM.

Take `CC=C(C)C(=O)OC1(C)C(=O)OC2C=C(C)CCC=C(C)CCC(OC(C)=O)C21` (stereo not shown) [Compound 21, laserolide]: the “Cytotoxicity / effect” value in the data set on mouse peritoneal cells is on record as “did not show any cytotoxicity”. Also, the IC50 in data set [3] was 90.2 µM.

For `C=C1C(=O)O[C@H]2[C@H]1CC/C(C)=C/CC[C@@]1(C)O[C@@H]21` [Compound 19, parthenolide], the viability at 24 h, 10 µM in data set [1] amounted to 81.1 ± 6.34%. Moreover, in data set [3], the “Effect on IFN-γ + LPS-activated NO production (in words)” value is reported as “substantially decreased the production of NO” and the IC50 was 2.79 µM.

On to `CC1=CC(=O)C2=C(C)CC(OC3OC(CO)C(O)C(O)C3O)C3C(C)C(=O)OC3C12` (stereo not shown) [Compound 6, deacetylmatricarin glucoside], for which the IC50 in data set [3] is greater than 100 µM.

Usually viability stands for a per cent measure of how many cells are alive, often set against a control.
